Assay results: publication PMC5474694, “Fragment-Sized EthR Inhibitors Exhibit Exceptionally Strong Ethionamide Boosting Effect in Whole-Cell Mycobacterium tuberculosis Assays” (ACS Chemical Biology, 2017)

How the values were obtained:
EthR = EthR (Mycobacterium tuberculosis, UniProt P9WMC1); assay: Isothermal titration calorimetry (ITC) binding to EthR; details: n = 1, one site binding model
Experimental: Isothermal titration calorimetry (ITC)
An aqueous solution of the fragment to be tested (1 mM) was prepared containing NaCl (300 mM), Tris.HCl (20 mM, pH = 8.0), d6-DMSO (10% v/v) and glycerol (to match the 10% v/v glycerol content in the EthR stock solution). A separate aqueous solution of EthR (50 μM) containing NaCl (300 mM), Tris.HCl (20 mM, pH = 8.0) and DMSO-d6 (10% v/v) was prepared and placed in the sample cell of a MicroCal iTC200 microcalorimeter (GE Healthcare). The fragment solution was then titrated to the EthR solution over 19 or 39 injections (first injection of 0.4 μl and subsequent injections of 2.0 μL or 1.0 μL). Data was fitted to a one site binding model using Origin software.
Figure S10 ITC trace for cyclopentylmethyl pyrrolidine-1-carboxylate 2 binding to EthR.
(1 picture or pasted object on this page, not shown here)

M. tuberculosis [1] = assay type: cell-based, Mycobacterium tuberculosis (ATCC 27294); details: for MEC (minimum effective concentration) / MEC for the 10-fold boosting of ethionamide / ethionamide boosting ability in M. tuberculosis culture: in the presence of 1/10 of the MIC of ethionamide; for MEC (minimum effective concentration): mean ± standard deviation of two independent replicates; for fold improvement in MEC on the starting fragment 1: relative to fragment 1; for fold drop in potency (MEC) on addition of an extra methylene unit to the linker: 15 relative to 14, 29 relative to 28
[2] = test system: M. tuberculosis infected murine macrophages; assay: Macrophage (intracellular) assay; assay type: cell-based, M. tuberculosis H37Rv-GFP in Raw264.7 macrophages; details: for IC50 / EC50: Mycobacterium tuberculosis, Macrophage; for IC50: in the absence of ethionamide, read-out: IC50, intrinsic bactericidal effect; for EC50: in the presence of 1/10 of the MIC of ethionamide; for concentrations at which intrinsic bactericidal activity against M. tuberculosis is seen: compound alone, without ethionamide
M. tuberculosis [3] = test system: M. tuberculosis; set-up: method as in PMID 24313835; details: cited from earlier work

EthR, sequence (P9WMC1 whole entry, looked up): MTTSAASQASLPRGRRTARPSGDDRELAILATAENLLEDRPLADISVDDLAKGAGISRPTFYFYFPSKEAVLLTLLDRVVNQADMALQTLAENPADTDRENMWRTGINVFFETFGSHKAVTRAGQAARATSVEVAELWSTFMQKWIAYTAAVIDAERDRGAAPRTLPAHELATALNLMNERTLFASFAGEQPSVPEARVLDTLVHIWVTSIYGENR

Compound: O=C(/C=C/c1ccoc1)N1CCCC1 [Compound 7]
- Kd (EthR): 20 µM
- MEC (minimum effective concentration) (M. tuberculosis [1]): >50 µM

Compound: O=C(CCCC1CCCCC1)N1CCCC1 [Compound 14]
- MEC for the 10-fold boosting of ethionamide (M. tuberculosis [1]): 400 nM
- MEC (minimum effective concentration) (M. tuberculosis [1]): 0.4 ± 0.2 µM
- fold improvement in MEC on the starting fragment 1 (M. tuberculosis [1]): approximately 7 fold
- IC50 [2]: ~1 µM
- EC50 [2]: 0.04 µM

Compound: O=C(OCC1CC1)N1CCCC1 [Compound 23]
- MEC (minimum effective concentration) (M. tuberculosis [1]): 3.1 ± 1.8 µM
- ethionamide boosting in the macrophage assay [2]: significant boosting of ethionamide

Compound: O=C(OCCCC1CCCC1)N1CCCC1 [Compound 28]
- MEC for the 10-fold boosting of ethionamide (M. tuberculosis [1]): 400 nM
- MEC (minimum effective concentration) (M. tuberculosis [1]): 0.4 ± 0.2 µM
- fold improvement in MEC on the starting fragment 1 (M. tuberculosis [1]): roughly 7 fold
- IC50 [2]: ~1 µM
- EC50 [2]: 0.05 µM

Compound: O=C(OCC1CCCC1)N1CCC1 [Compound 27]
- MEC (minimum effective concentration) (M. tuberculosis [1]): 13 ± 7.2 µM

Compound: O=C(OCCC1CCCC1)N1CCCC1 [Compound 22]
- MEC (minimum effective concentration) (M. tuberculosis [1]): 1.6 ± 0.9 µM
- ethionamide boosting in the macrophage assay [2]: significant boosting of ethionamide
- concentrations at which intrinsic bactericidal activity against M. tuberculosis is seen [2]: higher than 1 μM

Compound: CC(C)(C)OC(=O)N1CCCC1 [Compound 30, Boc-pyrrolidine]
- MEC (minimum effective concentration) (M. tuberculosis [1]): > 50 µM

Compound: CCCC(=O)N1CCCC1 [Compound 19]
- MEC (minimum effective concentration) (M. tuberculosis [1]): > 50 µM

Compound: CCc1cc(C(N)=S)ccn1 [ethionamide]
- MIC of ethionamide (M. tuberculosis [3]; ethionamide alone): 15 µM

Compound: O=S(=O)(CCC1CCCC1)N1CCCC1 [Compound 5]
- Kd (EthR): 16 µM
- MEC (minimum effective concentration) (M. tuberculosis [1]): >50 µM

Compound: O=C(NCC1CCOC1)N1CCCC1 (centres unmarked) [Compound 10]
- MEC (minimum effective concentration) (M. tuberculosis [1]): >50 µM

Compound: CCCCC(=O)N1CCCC1 [Compound 18]
- MEC (minimum effective concentration) (M. tuberculosis [1]): > 50 µM

Compound: CN(C)C(=O)OCC1CCCC1 [Compound 26]
- MEC (minimum effective concentration) (M. tuberculosis [1]): 6.3 ± 3.6 µM

Compound: O=C(OCC1CCCC1)N1CCCC1 [Compound 2, cyclopentylmethyl pyrrolidine-1-carboxylate]
- Kd (EthR): 15 µM
- MEC (minimum effective concentration) (M. tuberculosis [1]): 19 ± 7.5 µM

Compound: O=C(CC12CC3CC(CC(C3)C1)C2)N1CCCC1 [Compound 17]
- fold increase in ethionamide boosting ability (M. tuberculosis [1]; 17 relative to the inactive amide 16): over 30 fold
- MEC (minimum effective concentration) (M. tuberculosis [1]): 1.6 ± 0.8 µM

Compound: O=C(NCC1CCCC1)N1CCCC1 [Compound 3]
- Kd (EthR): 6 µM
- MEC (minimum effective concentration) (M. tuberculosis [1]): >50 µM

Compound: O=C(CCC1CCCC1)N1CCCC1 [Compound 1]
- ethionamide boosting in the macrophage assay [2]: significant boosting of ethionamide
- concentrations at which intrinsic bactericidal activity against M. tuberculosis is seen [2]: higher than 1 μM
- MIC of ethionamide in the presence of fragment 1 (M. tuberculosis [3]; fragment 1 at a concentration of 1 μM): approximately 2 μM

Compound: O=C(OCCCCC1CCCCC1)N1CCCC1 [Compound 29]
- fold drop in potency (MEC) on addition of an extra methylene unit to the linker (M. tuberculosis [1]): roughly 16 fold
- MEC (minimum effective concentration) (M. tuberculosis [1]): 6.3 ± 3.6 µM

Compound: O=C(CCc1ccoc1)N1CCCC1 [Compound 8]
- Kd (EthR): 22 µM
- MEC (minimum effective concentration) (M. tuberculosis [1]): >50 µM

Compound: O=C(OCC1CCCC1)N1CCCCCC1 [Compound 21]
- ethionamide boosting ability in M. tuberculosis culture (M. tuberculosis [1]): loss of ethionamide boosting ability
- MEC (minimum effective concentration) (M. tuberculosis [1]): > 50 µM

Compound: O=C(NCc1ccoc1)N1CCCC1 [Compound 9]
- MEC (minimum effective concentration) (M. tuberculosis [1]): >50 µM

Compound: O=C(NCC1CCCC1)C1CCCC1 [Compound 4]
- Kd (EthR): 11 µM
- MEC (minimum effective concentration) (M. tuberculosis [1]): >50 µM

Compound: O=C(CCC1CCCCC1)N1CCCC1 [Compound 13]
- MEC (minimum effective concentration) (M. tuberculosis [1]): 0.8 ± 0.5 µM
- fold improvement in MEC on the starting fragment 1 (M. tuberculosis [1]): approximately 4 fold

Compound: O=C(N1CCCC1)C12CC3CC(CC(C3)C1)C2 [Compound 16]
- MEC (minimum effective concentration) (M. tuberculosis [1]): > 50 µM

Compound: O=C(OCC1CCCCC1)N1CCCC1 [Compound 25]
- MEC (minimum effective concentration) (M. tuberculosis [1]): 1.6 ± 0.9 µM
- ethionamide boosting in the macrophage assay [2]: significant boosting of ethionamide
- concentrations at which intrinsic bactericidal activity against M. tuberculosis is seen [2]: higher than 1 μM

Compound: O=C(CC1CCCC1)N1CCCC1 [Compound 12]
- MEC (minimum effective concentration) (M. tuberculosis [1]): 19 ± 7.5 µM

Compound: O=C(CCCCC1CCCCC1)N1CCCC1 [Compound 15]
- fold drop in potency (MEC) on addition of an extra methylene unit to the linker (M. tuberculosis [1]): 4 fold
- MEC (minimum effective concentration) (M. tuberculosis [1]): 1.6 ± 0.8 µM

Compound: O=S(=O)(NCC1CCCC1)N1CCCC1 [Compound 6]
- Kd (EthR): 20 µM
- MEC (minimum effective concentration) (M. tuberculosis [1]): >50 µM

Compound: O=C(OCC1CCC1)N1CCCC1 [Compound 24]
- MEC (minimum effective concentration) (M. tuberculosis [1]): 3.1 ± 1.8 µM

Compound: O=C(C1CCCC1)N1CCCC1 [Compound 11]
- MEC (minimum effective concentration) (M. tuberculosis [1]): > 50 µM

Compound: O=C(OCC1CCCC1)N1CCCCC1 [Compound 20]
- ethionamide boosting ability in M. tuberculosis culture (M. tuberculosis [1]): loss of ethionamide boosting ability
- MEC (minimum effective concentration) (M. tuberculosis [1]): > 50 µM
